Results: patent US20200392158A1, “INHIBITORS OF LEUCINE RICH REPEAT KINASE 2” (GLAXOSMITHKLINE INTELLECTUAL PROPERTY DEVELOPMENT LIMITED, priority 2017, published 2020)

Columns and labels:
[1] = target: T1, LRRK2 kinase in SH-SY5Y cells over-expressing recombinant full length LRRK2 (Homo sapiens, UniProt Q5S007); assay: Recombinant cellular LRRK2 AlphaScreen assay (LRRK2 Ser935 phosphorylation); type: cell-based; settings: 60 min
T1 construct: A BacMam virus expressing full length recombinant LRRK2 was purchased from Invitrogen; host or cells: SH-SY5Y human neuroblastoma cells transduced with BacMam LRRK2 virus
T1 sequence (Q5S007 whole entry): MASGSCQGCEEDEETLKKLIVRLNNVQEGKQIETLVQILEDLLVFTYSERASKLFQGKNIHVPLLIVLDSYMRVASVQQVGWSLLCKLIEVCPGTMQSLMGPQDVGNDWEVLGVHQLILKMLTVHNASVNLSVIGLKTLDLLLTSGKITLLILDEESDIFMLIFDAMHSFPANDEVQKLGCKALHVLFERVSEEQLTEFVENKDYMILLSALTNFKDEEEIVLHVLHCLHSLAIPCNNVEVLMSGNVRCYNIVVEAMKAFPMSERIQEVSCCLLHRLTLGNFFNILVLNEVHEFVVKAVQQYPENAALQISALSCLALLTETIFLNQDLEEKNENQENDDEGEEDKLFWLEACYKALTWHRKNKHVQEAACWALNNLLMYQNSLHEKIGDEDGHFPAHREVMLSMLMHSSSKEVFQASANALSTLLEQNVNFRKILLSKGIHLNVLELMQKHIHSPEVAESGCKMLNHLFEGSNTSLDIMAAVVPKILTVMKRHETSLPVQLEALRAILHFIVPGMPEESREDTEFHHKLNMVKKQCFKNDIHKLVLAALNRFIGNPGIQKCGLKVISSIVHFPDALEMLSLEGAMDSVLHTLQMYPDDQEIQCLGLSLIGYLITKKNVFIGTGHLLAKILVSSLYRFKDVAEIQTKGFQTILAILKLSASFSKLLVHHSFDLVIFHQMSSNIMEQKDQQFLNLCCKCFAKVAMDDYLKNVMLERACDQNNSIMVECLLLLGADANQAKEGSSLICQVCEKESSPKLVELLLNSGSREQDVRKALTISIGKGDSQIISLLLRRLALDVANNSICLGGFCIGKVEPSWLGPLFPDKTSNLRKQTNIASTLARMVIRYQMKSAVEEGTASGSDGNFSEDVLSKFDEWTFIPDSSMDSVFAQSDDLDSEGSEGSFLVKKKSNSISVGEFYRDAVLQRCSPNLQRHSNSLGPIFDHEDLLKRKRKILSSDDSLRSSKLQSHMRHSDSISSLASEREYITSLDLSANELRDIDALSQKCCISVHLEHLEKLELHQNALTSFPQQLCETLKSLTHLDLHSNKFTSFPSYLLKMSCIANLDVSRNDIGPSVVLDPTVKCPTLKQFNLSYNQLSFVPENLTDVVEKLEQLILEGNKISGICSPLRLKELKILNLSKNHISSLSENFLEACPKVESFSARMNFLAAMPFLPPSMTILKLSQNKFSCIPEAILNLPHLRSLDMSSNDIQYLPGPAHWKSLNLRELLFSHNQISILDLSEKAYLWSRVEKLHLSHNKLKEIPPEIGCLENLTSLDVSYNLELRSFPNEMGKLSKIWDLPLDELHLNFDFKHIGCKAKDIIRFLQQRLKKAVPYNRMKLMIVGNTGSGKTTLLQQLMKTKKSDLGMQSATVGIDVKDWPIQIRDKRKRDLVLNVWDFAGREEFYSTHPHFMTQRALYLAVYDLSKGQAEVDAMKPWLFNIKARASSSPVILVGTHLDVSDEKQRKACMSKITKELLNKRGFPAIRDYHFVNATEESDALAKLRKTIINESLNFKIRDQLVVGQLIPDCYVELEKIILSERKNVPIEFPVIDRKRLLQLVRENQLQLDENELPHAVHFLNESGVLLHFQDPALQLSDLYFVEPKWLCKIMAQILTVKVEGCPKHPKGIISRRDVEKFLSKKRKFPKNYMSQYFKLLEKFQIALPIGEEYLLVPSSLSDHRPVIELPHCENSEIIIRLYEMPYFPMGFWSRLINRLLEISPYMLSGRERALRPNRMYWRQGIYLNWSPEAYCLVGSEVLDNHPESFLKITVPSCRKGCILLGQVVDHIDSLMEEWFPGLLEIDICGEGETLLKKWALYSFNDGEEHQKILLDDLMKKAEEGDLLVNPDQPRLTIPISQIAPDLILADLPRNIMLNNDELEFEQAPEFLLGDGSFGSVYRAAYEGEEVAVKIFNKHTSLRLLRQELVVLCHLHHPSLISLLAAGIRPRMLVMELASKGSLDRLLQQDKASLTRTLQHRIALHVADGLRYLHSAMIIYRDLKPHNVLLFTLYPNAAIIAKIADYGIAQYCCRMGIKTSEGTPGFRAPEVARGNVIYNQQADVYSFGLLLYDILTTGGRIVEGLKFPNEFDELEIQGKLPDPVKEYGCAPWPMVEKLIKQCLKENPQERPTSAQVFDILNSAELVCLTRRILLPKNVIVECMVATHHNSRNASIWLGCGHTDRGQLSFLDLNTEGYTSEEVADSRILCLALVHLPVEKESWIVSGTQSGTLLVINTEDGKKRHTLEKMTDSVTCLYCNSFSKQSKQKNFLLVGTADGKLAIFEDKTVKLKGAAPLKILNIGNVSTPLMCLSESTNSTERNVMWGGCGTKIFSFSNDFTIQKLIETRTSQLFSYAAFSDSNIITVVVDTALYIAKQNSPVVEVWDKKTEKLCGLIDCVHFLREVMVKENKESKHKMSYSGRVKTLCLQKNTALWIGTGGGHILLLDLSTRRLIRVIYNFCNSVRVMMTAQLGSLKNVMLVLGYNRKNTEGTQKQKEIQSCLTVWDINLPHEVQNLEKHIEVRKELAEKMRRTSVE
Procedure, shortened: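 Read-out is AlphaScreen of LRRK2 pSer935 over total LRRK2 in lysates of SH-SY5Y cells over-expressing full-length LRRK2 via BacMam (24 h transduction). Cells were exposed 60 min at 37 °C to an 11-point 1-in-4 dilution series starting at 10 uM; sigmoidal fit.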

[2] = target: T2, full length G2019 human LRRK2 (Homo sapiens, UniProt Q5S007, R50H); assay: Full length G2019 human LRRK2 inhibition mass spectrometry assay; type: biochemical; settings: LRRKtide to phospho-LRRKtide conversion, RapidFire MS, 2 mM ATP
T2 construct: made in house; host or cells: HEK293 6E cells transduced with BacMam virus (virus generated in Sf9 cells)
T2 sequence (Q5S007 with tags, fused parts or gaps R50H): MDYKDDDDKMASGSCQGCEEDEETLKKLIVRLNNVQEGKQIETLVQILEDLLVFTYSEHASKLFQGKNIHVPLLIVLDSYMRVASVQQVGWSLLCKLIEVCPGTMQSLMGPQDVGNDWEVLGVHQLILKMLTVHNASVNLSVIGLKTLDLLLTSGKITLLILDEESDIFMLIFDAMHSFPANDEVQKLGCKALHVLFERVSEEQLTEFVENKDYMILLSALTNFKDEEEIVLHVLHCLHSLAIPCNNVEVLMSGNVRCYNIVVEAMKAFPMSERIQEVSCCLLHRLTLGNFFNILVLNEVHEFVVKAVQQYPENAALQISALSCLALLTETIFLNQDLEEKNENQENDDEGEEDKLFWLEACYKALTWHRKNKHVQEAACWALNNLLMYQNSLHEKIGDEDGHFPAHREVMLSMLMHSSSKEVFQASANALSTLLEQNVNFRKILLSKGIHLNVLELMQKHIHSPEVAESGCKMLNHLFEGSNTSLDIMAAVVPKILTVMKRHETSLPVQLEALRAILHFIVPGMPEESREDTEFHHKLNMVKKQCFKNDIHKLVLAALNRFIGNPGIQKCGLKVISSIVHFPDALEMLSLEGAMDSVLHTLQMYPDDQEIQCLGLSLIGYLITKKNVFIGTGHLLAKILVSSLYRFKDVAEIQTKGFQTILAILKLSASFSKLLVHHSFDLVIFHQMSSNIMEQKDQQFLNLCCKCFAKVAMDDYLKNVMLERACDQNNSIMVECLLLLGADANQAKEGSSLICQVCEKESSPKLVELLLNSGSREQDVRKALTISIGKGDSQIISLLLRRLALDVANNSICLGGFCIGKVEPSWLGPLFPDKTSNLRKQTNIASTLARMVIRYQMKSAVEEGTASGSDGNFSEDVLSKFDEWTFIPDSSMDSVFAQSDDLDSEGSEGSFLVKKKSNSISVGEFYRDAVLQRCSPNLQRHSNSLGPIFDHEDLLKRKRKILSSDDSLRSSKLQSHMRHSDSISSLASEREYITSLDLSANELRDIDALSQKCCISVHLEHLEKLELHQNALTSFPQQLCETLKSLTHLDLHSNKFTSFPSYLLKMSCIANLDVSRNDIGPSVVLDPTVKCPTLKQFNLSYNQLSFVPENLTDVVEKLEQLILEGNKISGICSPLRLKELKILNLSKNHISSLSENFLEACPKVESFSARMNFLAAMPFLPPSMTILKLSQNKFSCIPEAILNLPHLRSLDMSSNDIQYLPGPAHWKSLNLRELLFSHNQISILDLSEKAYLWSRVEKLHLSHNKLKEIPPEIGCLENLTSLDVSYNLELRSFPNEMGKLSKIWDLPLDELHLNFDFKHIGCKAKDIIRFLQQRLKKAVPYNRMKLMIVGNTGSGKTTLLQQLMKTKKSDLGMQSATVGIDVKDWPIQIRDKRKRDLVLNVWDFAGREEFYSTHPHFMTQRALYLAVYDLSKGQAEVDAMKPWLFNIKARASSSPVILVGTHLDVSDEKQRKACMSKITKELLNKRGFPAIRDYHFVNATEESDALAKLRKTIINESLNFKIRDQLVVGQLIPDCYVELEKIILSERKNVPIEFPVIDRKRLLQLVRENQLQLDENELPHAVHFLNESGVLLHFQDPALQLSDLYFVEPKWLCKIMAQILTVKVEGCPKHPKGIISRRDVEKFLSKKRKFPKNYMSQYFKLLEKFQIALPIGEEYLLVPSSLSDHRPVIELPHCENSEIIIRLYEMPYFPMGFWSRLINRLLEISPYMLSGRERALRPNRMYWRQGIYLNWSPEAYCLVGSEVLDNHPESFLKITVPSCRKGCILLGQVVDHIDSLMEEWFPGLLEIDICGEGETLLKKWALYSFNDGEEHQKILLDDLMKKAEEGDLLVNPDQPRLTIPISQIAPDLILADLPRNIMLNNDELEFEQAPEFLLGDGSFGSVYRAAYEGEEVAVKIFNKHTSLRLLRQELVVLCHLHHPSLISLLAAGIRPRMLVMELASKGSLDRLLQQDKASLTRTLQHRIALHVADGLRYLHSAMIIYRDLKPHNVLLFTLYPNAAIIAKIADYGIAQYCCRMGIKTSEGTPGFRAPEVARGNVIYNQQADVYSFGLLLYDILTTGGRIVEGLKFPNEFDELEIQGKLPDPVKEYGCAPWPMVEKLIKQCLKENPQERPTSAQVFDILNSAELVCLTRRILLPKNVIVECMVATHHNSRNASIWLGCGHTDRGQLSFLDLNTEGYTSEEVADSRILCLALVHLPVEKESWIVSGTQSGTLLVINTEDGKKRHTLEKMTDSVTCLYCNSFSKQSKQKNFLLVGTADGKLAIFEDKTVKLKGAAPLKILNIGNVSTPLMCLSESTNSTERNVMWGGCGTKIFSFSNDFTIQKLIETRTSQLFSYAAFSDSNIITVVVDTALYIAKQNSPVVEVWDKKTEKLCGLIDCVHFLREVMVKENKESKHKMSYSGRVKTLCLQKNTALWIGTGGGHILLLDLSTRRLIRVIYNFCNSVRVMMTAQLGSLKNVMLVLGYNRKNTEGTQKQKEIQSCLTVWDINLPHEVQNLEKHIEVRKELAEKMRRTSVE
Procedure, shortened: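 Inhibition taken as reduced LRRKtide phosphorylation, quantified by RapidFire-coupled triple-quadrupole MS as product/(product+substrate) peak area. Reaction: 2 mM ATP, 25 μM peptide, ~25 nM full-length G2019 Flag-LRRK2, Hepes pH 7.2 buffer, room temperature for 1 h. 11-point 1-in-4 dilutions from 100 μM; logistic fit gives IC50, reported as pIC50.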

| Compound | IC50 [1] [nM] | IC50 [2] [nM] |
| --- | --- | --- |
| C=Cc1cnc2nc1N[C@H](C)CCOc1nn(C3CCOCC3)c(C)c1N2 [E389, (11R)-14-Ethenyl-4,11-dimethyl-5-(oxan-4-yl)-8-oxa-2,5,6,12,16,17-hexaazatricyclo[11.3.1.0^3,7]heptadeca-1(16)53,6,13(17),14-pentaene] | ≤ 100 | ≤ 100 |
| Cc1c2c(nn1C1CCOCC1)OCC(F)C(CF)Nc1nc(ncc1Cl)N2 (stereo not drawn) [E391, 14-Chloro-10-fluoro-11-(fluoromethyl)-4-methyl-5-(oxan-4-yl)-8-oxa-2,5,6,12,16,17-hexaazatricyclo[11.3.1.0^3,7]heptadeca-1(16),3,6,13(17),14-pentaene] | ≤ 100 | ≤ 100 |
| Cc1[nH]nc2c1Nc1ncc(Cl)c(n1)N[C@H](C)CCO2 [E394, (11R)-14-Chloro-4,11-dimethyl-8-oxa-2,5,6,12,16,17-hexaazatricyclo[11.3.1.0^3,7]heptadeca-1(16),3,6,13(17),14-pentaene] | ≤ 100 | ≤ 100 |
| Cc1[nH]nc2c1Nc1ncc(Cl)c(n1)NCCCO2 [E395, 14-Chloro-4-methyl-8-oxa-2,5,6,12,16,17-hexaazatricyclo [11.3.1.0^3,7]heptadeca-1(16),3,6,13(17),14-pentaene] | ≤ 100 | ≤ 100 |
| Clc1cnc2nc1NCCCOc1n[nH]c(Cl)c1N2 [E396, 4,14-Dichloro-8-oxa-2,5,6,12,16,17 hexaazatricyclo[11.3.1.0^3,7] heptadeca-1(16),3,6,13(17),14-pentaene] | ≤ 100 | ≤ 100 |
| C[C@@H]1CCOc2n[nH]c(Cl)c2Nc2ncc(Cl)c(n2)N1 [E397, (11R)-4,14-Dichloro-11-methyl-8-oxa-2,5,6,12,16,17-hexaazatricyclo[11.3.1.0^3,7]heptadeca-1(16),3,6,13(17),14-pentaene] | ≤ 100 | ≤ 100 |
| CCc1c2c(nn1C1CCOCC1)OCC[C@@H](C)Nc1nc(ncc1Cl)N2 [E399, (11R)-14-Chloro-4-ethyl-11-methyl-5-(oxan-4-yl)-8-oxa-2,5,6,12,16,17-hexaazatricyclo[11.3.1.0^3,7]heptadeca-1(16),3,6,13(17),14-pentaene] | ≤ 100 | ≤ 100 |
| C#Cc1cnc2nc1N[C@H](C)CCOc1nn(C3CCOCC3)c(C)c1N2 [E401, (11R)-14-Ethynyl-4,11-dimethyl-5-(oxan-4-yl)-8-oxa-2,5,6,12,16,17-hexaazatricyclo[11.3.1.0^3,7]heptadeca-1(16),3,6,13(17),14-pentaene] | ≤ 100 | ≤ 100 |

Continued, values first:

| IC50 [1] [nM] | IC50 [2] [nM] | Compound |
| --- | --- | --- |
| ≤ 100 | ≤ 100 | Cc1c2c(nn1C1CCN(C3CCOC3)CC1)OCC[C@@H](C)Nc1nc(ncc1Cl)N2 (stereo partly drawn) [E382, (11R)-14-Chloro-4,11-dimethyl-5-[1-(oxolan-3-yl)piperidin-4-yl]-8-oxa-2,5,6,12,16,17-hexaazatricyclo[11.3.1.0^3,7]heptadeca-1(16),3,6,13(17),14-pentaene] |
| ≤ 100 | ≤ 100 | Cc1c2c(nn1C1CN(C3CCCOC3)C1)OCC[C@@H](C)Nc1nc(ncc1Cl)N2 (stereo partly drawn) [E385, (11R)-14-Chloro-4,11-dimethyl-5[1-(oxan-3-yl)azetidin-3-yl]-8-oxa-2,5,6,12,16,17-hexaazatricyclo[11.3.1.0^3,7]heptadeca-1(16),3,6,13(17),14-pentaene] |
| ≤ 100 | ≤ 100 | Cc1c2c(nn1C1CCOC(C)C1)OCCC(C(F)F)Nc1nc(ncc1Cl)N2 (stereo not drawn) [E386, 14-Chloro-11-(difluoromethyl)-4-methyl-5-(2-methyloxan-4-yl)-8-oxa-2,5,6,12,16,17-hexaazatricyclo[11.3.1.0^3,7]heptadeca-1(16),3,6,13(17),14-pentaene] |
| ≤ 100 | ≤ 100 | Cc1c2c(nn1C1CCOCC1F)OC[C@@H](F)[C@@H](C)Nc1nc(ncc1Cl)N2 (stereo partly drawn) [E387, (10S, 11R)-14-Chloro-10-fluoro-5-(3-fluorooxan-4-yl)-4,11-dimethyl-8-oxa-2,5,6,12,16,17-hexaazatricyclo[11.3.1.0^3,7] heptadeca-1(16),3,6,13(17),14-pentaene] |
